Data from ChEMBL document CHEMBL4373664, “Importance of lipophilicity for potent anti-herpes simplex virus-1 activity of α-hydroxytropolones” (Medchemcomm, 2019).
Active and inactive are the calls of the source. The rule behind the calls is not given here.

How the values were obtained:
Human alphaherpesvirus 1 [1] = test: Antiviral activity against HSV-1 infected in African green monkey Vero cells assessed as suppression of viral replication at 0.2 uM after 24 hrs by plaque reduction assay based phase contrast microscopy; format: functional
Human alphaherpesvirus 1 [2] = test: Antiviral activity against HSV-1 infected in African green monkey Vero cells assessed as suppression of viral replication at 1 uM after 24 hrs by plaque reduction assay based phase contrast microscopy; format: functional
Human alphaherpesvirus 1 [3] = test: Antiviral activity against HSV-1 infected in African green monkey Vero cells assessed as suppression of viral replication at 5 uM after 24 hrs by plaque reduction assay based phase contrast microscopy; format: functional
Human alphaherpesvirus 1 [4] = test: Antiviral activity against HSV-1 infected in African green monkey Vero cells assessed as suppression of viral replication after 24 hrs by plaque reduction assay based phase contrast microscopy; format: functional, organism-based; details: Human alphaherpesvirus 1, Vero
[5] = Cytotoxicity against African green monkey Vero cells incubated for 24 hrs by MTT assay; format: cell-based; details: chlorocebus sabaeus
Human alphaherpesvirus 1 [6] = test: Antiviral activity against HSV-1 infected in African green monkey Vero cells assessed as suppression of viral replication at 1 uM after 24 hrs by plaque reduction assay based phase contrast microscopy relative to control; format: functional
[7] = Therapeutic index, ratio of CC50 for African green monkey Vero cells to EC50 for HSV-1 infected in African green monkey Vero cells; format: toxicity; details: read-out: Ratio CC50/EC50
[8] = Inhibition of NTS in HSV-1 infected in African green monkey Vero cells assessed as suppression of viral replication by measuring viral titer after 24 hrs by plaque reduction assay based phase contrast microscopy; format: cell-based; details: Human alphaherpesvirus 1, Vero
[9] = Inhibition of NTS in HSV-2 infected in African green monkey Vero cells assessed as suppression of viral replication by measuring viral titer after 24 hrs by plaque reduction assay based phase contrast microscopy; format: cell-based; details: Human alphaherpesvirus 2, Vero
[10] = Cytotoxicity against African green monkey Vero cells incubated for 72 hrs by MTS assay; format: cell-based; details: chlorocebus sabaeus

Structure (SMILES) | log(activity) (Human alphaherpesvirus 1 [1]) | log(activity) (Human alphaherpesvirus 1 [2]) | log(activity) (Human alphaherpesvirus 1 [3]) | EC50 (Human alphaherpesvirus 1 [4]) | CC50 at 24 h [5] | fold change (FC) (Human alphaherpesvirus 1 [6]) | selectivity ratio [7] | EC50 [8] | EC50 [9] | CC50 at 72 h [10]
Cc1cc(O)c(=O)c(O)cc1C(=O)c1cccs1 | 0.16 | -0.06 | 0.92 |  |  |  |  |  |  | 
CCCCCCCCCCCCCC(=O)c1cc(O)c(=O)c(O)cc1C | 0.36 | 1.58 | 4.31 | 140 nM | 91000 nM | >10 | 631 |  |  | 
CC(C)=CCc1ccc(=O)c(O)cc1C(C)C |  |  |  |  | 100000 nM |  |  | 240 nM | 220 nM | 
Cc1cc(O)c(=O)c(O)cc1-c1cccc(-c2ccccc2)c1 | 0.02 | 4.26 | 4.28 |  |  |  |  |  |  | 
Cc1cc(O)c(=O)c(O)cc1-c1ccc(-c2ccccc2)cc1 | -0.05 | 4.09 | 4.08 |  | > 100000 nM |  |  | 180 nM | 210 nM | > 100000 nM
Cc1cc(O)c(=O)c(O)cc1C(=O)c1ccccc1O | 0.1 | 0.86 | 3.86 |  |  |  |  |  |  | 
Cc1cc(O)c(=O)c(O)cc1C(=O)C(C)C | inactive | inactive | -0.01 | 26000 nM | 91000 nM |  | 3.6 |  |  | 
Cc1cc(O)c(=O)c(O)cc1C(=O)C1CCCCC1 | 0.62 | 0.76 | 5.14 | 630 nM | 73000 nM |  | 116 |  |  | 
Cc1cc(O)c(=O)c(O)cc1-c1cccc(-c2cccc3ccccc23)c1 | 0.04 | 4 | 4.02 |  |  |  |  |  |  | 
Cc1cc(O)c(=O)c(O)cc1C(=O)c1ccc(Br)cc1 | 0.09 | 0.42 | 5.4 |  |  |  |  |  |  | 
CCCCCCCCCC(=O)c1cc(O)c(=O)c(O)cc1C | inactive | 0.07 | 3.78 | 1100 nM | > 100000 nM |  | > 92 |  |  | 
Cc1cc(O)c(=O)c(O)cc1C(=O)c1ccc([N+](=O)[O-])cc1 | 0.03 | 0.6 | 3.91 |  |  |  |  |  |  | 
COc1ccc(C(=O)c2cc(O)c(=O)c(O)cc2C)cc1 | 0.02 | 0.92 | 3.94 |  |  |  |  |  |  | 
Cc1cc(O)c(=O)c(O)cc1C(=O)c1cccc(-c2cccc3ccccc23)c1 | 0.15 | 3.15 | 4.6 |  |  |  |  |  |  | 
Cc1cc(O)c(=O)c(O)cc1C(=O)c1cccc([N+](=O)[O-])c1 | 0.23 | 0.9 | 4.2 |  |  |  |  |  |  | 
Cc1cc(O)c(=O)c(O)cc1-c1ccc(-c2ccc3ccccc3c2)cc1 | -0.03 | 0.57 | 4.15 |  |  |  |  |  |  | 

Structure (SMILES) | log(activity) (Human alphaherpesvirus 1 [1]) | log(activity) (Human alphaherpesvirus 1 [2]) | log(activity) (Human alphaherpesvirus 1 [3]) | EC50 (Human alphaherpesvirus 1 [4]) | CC50 at 24 h [5] | fold change (FC) (Human alphaherpesvirus 1 [6]) | selectivity ratio [7] | EC50 [8] | EC50 [9] | CC50 at 72 h [10]
Cc1cc(O)c(=O)c(O)cc1S(=O)(=O)c1ccccc1 | inactive | 0.81 | 0.34 |  |  |  |  |  |  | 
Cc1cc(O)c(=O)c(O)cc1C(=O)c1ccccc1 | inactive | 0.11 | 4.21 |  |  |  |  |  |  | 
Cc1cc(O)c(=O)c(O)cc1C(=O)c1ccco1 | -0.1 | 0.41 | 4.52 |  |  |  |  |  |  | 
Cc1cc(O)c(=O)c(O)cc1C(=O)c1ccc(-c2ccc3ccccc3c2)cc1 | 1.34 | 3.54 | 4.28 |  |  |  |  |  |  | 
CCCCCCCC(=O)c1cc(O)c(=O)c(O)cc1C | 0.13 | 0.2 | 4.84 | 440 nM | 81000 nM |  | 185 |  |  | 
Cc1cc(O)c(=O)c(O)cc1C(=O)c1cccc(-c2ccc3ccccc3c2)c1 | 0.14 | 3.03 | 4.11 |  |  |  |  |  |  | 
Cc1cc(O)c(=O)c(O)cc1C(=O)c1ccc2ccc3cccc4ccc1c2c34 | 0.93 | 5.01 | 5.76 | 60 nM | > 100000 nM |  | > 1800 |  |  | 
Cc1cc(O)c(=O)c(O)cc1-c1cccc(-c2ccc3ccccc3c2)c1 | 0.06 | 0.66 | 4.1 |  |  |  |  |  |  | 
C=C(C)[C@@H]1CCc2c(c(C)cc(O)c(=O)c2O)C1 |  |  |  |  | 100000 nM |  |  | 350 nM | 580 nM | 
CC(=O)c1cc(O)c(=O)c(O)cc1C | inactive | inactive | 0.48 | 1200 nM | > 100000 nM |  | > 83 |  |  | 
Cc1cc(O)c(=O)c(O)cc1S(=O)(=O)c1ccc(-c2ccccc2)cc1 | inactive | -0.34 | 4.44 |  |  |  |  |  |  | 
CCCCCCCCCCCC(=O)c1cc(O)c(=O)c(O)cc1C | 0.29 | 3.23 | 4.84 | 350 nM | 95000 nM | >10 | 255 |  |  | 
Cc1cc(O)c(=O)c(O)cc1C(=O)c1cccc(Br)c1 | 0.09 | 0.21 | 5.46 |  |  |  |  |  |  | 
Cc1cc(O)c(=O)c(O)cc1C(=O)c1ccc2ccccc2c1 | 0.28 | 3.82 | 4.08 |  |  | >10 |  |  |  | 
CC(C)c1ccc(O)c(=O)c(O)c1 [BETA-THUJAPLICINOL] |  |  |  |  | > 100000 nM |  |  | 2000 nM | 1700 nM | 
Cc1cc(O)c(=O)c(O)cc1C(=O)c1ccc(-c2ccccc2)cc1 | 0.43 | 4.86 | 4.72 | 170 nM | > 100000 nM |  | > 600 | 120 nM | 81 nM | > 100000 nM
